Reference: patent US6872711B2, “β-substituted β-aminoethyl phosphonate derivatives” (Ilex Oncology Research S.A., priority 2000, dated 2005)

Key:
[1] = system: apo(a) secretion in primary cultures of Cynomolgus hepatocytes; assay: Lowering the production of apo(a) in primary cultures of Cynomolgus hepatocytes (ELISA of culture medium); assay type: cell-based, Cynomolgus monkeys; details: Macaca fascicularis, Hepatocyte, tested at 20 μM, 6-24 hours incubation, one range stated for all listed compounds, read-out: lowering of apo(a) secretion (change vs control plates)
Experimental: The compounds of formula (I) were assayed for lowering the production of apo(a) in primary cultures of Cynomolgus hepatocytes.
Protocol: Hepatocytes were isolated from livers of male adult Cynomolgus monkeys by the two-step collagenase perfusion method according to C. Guguen-Guillouzo and A. Guillouzo “Methods for preparation of adult and fetal hepatocytes” p.1-12in “Isolated and Cultured Hepatocytes,” les editions Inserm Paris and John Libbey Eurotext London (1986).
The viability of cells was determined by Trypan blue staining. The cells were then seeded at a density of 1.5-2.10^5 viable cells per 2 cm^2 in 24 well tissue culture plates in a volume of 500 μl per well of Williams E tissue culture medium containing 10% fetal calf serum. Cells were incubated for 6-24 hours at 37° C. in a CO2 incubator (5% CO2) in the presence of 20 μM of the test compounds dissolved in ethanol. Four wells were used for each compound. Nicotinic acid and steroid hormones were used as references to validate the assay system since they are known to decrease Lp(a) in man. Control cells were incubated in the presence of ethanol only.
The amount of Lp(a) secreted in culture medium was directly assayed by ELISA using a commercially available kit. Cells were washed and lysed as described by A. L. White et al., Journal of Lipid Research vol. 34, p. 509-517, (1993) and the cellular content of Lp(a) was assayed as described above. Changes in Lp(a) concentration in culture medium are given as the percentage of value measured for the control plates.

Row | SMILES | inhibition at 20 µM [1] [%] | melting point [°C]
1 | CCOP(=O)(CC(Nc1cccnc1)c1cc(OC)c(O)c(OC)c1)OCC (stereo not drawn) [Compound 1, diethyl β-(3,5-dimethoxy-4-hydroxyphenyl)-β-[N-(3-pyridyl)-amino]-ethylphosphonate] | 10 to 35 | 164 to 166
2 | COc1cc(C(CP(=O)(OC(C)C)OC(C)C)Nc2cccnc2)cc(OC)c1O (stereo not drawn) [Compound 2, diisopropyl β-(3,5-dimethoxy-4-hydroxyphenyl)-β-[N-(3-pyridyl)-amino]-ethylphosphonate] | 10 to 35 | 138 to 140
3 | CCOP(=O)(CC(Nc1cccnc1)c1cc(C)c(O)c(OC)c1)OCC (stereo not drawn) [Compound 9, diethyl β-(4-hydroxy-3-methoxy-5-methylphenyl)-β-[N-(3-pyridyl)-amino]-ethylphosphonate] | 10 to 35 | 156 to 158
4 | COc1cc(C(CP(=O)(OC(C)C)OC(C)C)Nc2cccnc2)cc(C)c1O (stereo not drawn) [Compound 10, diisopropyl β-(4-hydroxy-3-methoxy-5-methylphenyl)-β-[N-(3-pyridyl)-amino]-ethylphosphonate] | 10 to 35 | 135 to 137
5 | CCOP(=O)(CC(Nc1cccnc1)c1cc(C)c(O)c(C)c1)OCC (stereo not drawn) [Compound 16, diethyl β-(3,5-dimethyl-4-hydroxyphenyl)-β-[N-(3-pyridyl)-amino]-ethylphosphonate] | 10 to 35 | 98 to 101
6 | Cc1cc(C(CP(=O)(OC(C)C)OC(C)C)Nc2cccnc2)cc(C)c1O (stereo not drawn) [Compound 17, diisopropyl β-(3,5-dimethyl-4-hydroxyphenyl)-β-[N-(3-pyridyl)-amino]-ethylphosphonate] | 10 to 35 | 104 to 105
7 | CCOP(=O)(CC(Nc1cccnc1)c1cc(OC)c(OC)c(OC)c1)OCC (stereo not drawn) [Compound 18, diethyl β-(3,4,5-trimethoxyphenyl)-β-[N-(3-pyridyl)-amino]-ethylphosphonate] | 10 to 35 | 104 to 106
8 | COc1cc(C(CP(=O)(OC(C)C)OC(C)C)Nc2cccnc2)cc(OC)c1OC (stereo not drawn) [Compound 19, diisopropyl β-(3,4,5-trimethoxyphenyl)-β-[N-(3-pyridyl)-amino]-ethylphosphonate] | 10 to 35 | 96 to 98
9 | CCOc1cc(C(CP(=O)(OCC)OCC)Nc2cccnc2)cc(C)c1O (stereo not drawn) [Compound 20, diethyl β-(3-ethoxy-4-hydroxy-5-methylphenyl)-β-[N-(3-pyridyl)-amino]-ethylphosphonate] | 10 to 35 | 162 to 164
10 | CCOc1cc(C(CP(=O)(OC(C)C)OC(C)C)Nc2cccnc2)cc(C)c1O (stereo not drawn) [Compound 21, diisopropyl β-(3-ethoxy-4-hydroxy-5-methylphenyl)-β-[N-(3-pyridyl)-amino]-ethylphosphonate] | 10 to 35 | 148 to 150
11 | CCOP(=O)(CC(Nc1cccnc1)c1cc(C(C)(C)C)c(OC)c(C(C)(C)C)c1)OCC (stereo not drawn) [Compound 30, diethyl β-(3,5-di-tert-butyl-4-methoxyphenyl)-β-[N-(3-pyridyl)-amino]-ethylphosphonate] | 10 to 35 | 
12 | CCOP(=O)(CC(Nc1cccnc1)c1ccc(C)c(O)c1C)OCC (stereo not drawn) [Compound 31, diethyl β-(2,4-dimethyl-3-hydroxyphenyl)-β-[N-(3-pyridyl)-amino]-ethylphosphonate] | 10 to 35 | 
13 | CCOP(=O)(CC(Nc1cccnc1)c1cc(O)c(C)c(OC)c1)OCC (stereo not drawn) [Compound 34, diethyl β-(3-hydroxy-5-methoxy-4-methylphenyl)-β-[N-(3-pyridyl)-amino]-ethylphosphonate] | 10 to 35 | 146 to 147
14 | CCOP(=O)(CC(Nc1cccnc1)c1cc(OC)c(CO)c(OC)c1)OCC (stereo not drawn) [Compound 37, diethyl β-(3,5-dimethoxy-4-hydroxymethylphenyl)-β-[N-(3-pyridyl)-amino]-ethylphosphonate] | 10 to 35 | 
